Experimental data from patent US20170275270A1, “BENZYL SUBSTITUTED INDAZOLES” (Bayer Pharma Aktiengesellschaft, priority 2014, published 2017).

target: T1, catalytic domain of human Bub1 (amino acids 704-1085) (Homo sapiens, UniProt O43683); test: Bub1 kinase assay (TR-FRET); assay type: biochemical; conditions: 10 μM ATP, read-out: Biological Assay 1: Bub1 kinase assay median IC50
T1 construct: catalytic domain of human Bub1 (amino acids 704-1085); His6 (N); made in house; host or cells: Hi5 insect cells
T1 sequence (O43683 704-1085): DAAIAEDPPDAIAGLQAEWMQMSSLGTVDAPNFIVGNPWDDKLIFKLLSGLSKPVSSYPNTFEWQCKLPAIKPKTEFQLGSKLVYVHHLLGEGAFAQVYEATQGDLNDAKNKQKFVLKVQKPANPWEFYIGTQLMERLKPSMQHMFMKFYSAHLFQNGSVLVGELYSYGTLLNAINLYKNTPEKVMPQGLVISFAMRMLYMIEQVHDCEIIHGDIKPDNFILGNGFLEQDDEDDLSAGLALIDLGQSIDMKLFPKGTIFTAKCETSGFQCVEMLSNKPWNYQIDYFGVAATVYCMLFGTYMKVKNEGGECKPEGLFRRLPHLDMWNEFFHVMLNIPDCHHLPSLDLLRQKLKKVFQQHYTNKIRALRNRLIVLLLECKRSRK
Method: To this end, 100-fold concentrated compound solutions (in DMSO) were previously prepared by serial dilution (1:3.4) of 2 mM stocks in a clear low volume 384-well source microtiter plate (Greiner Bio-One, Frickenhausen, Germany), from which 50 nL of compounds were transferred into a black low volume test microtiter plate from the same supplier. […] The resulting mixture (5 μL final volume) was incubated at 22° C. during 60 min., and the reaction was stopped by the addition of 5 μL of an aqueous EDTA-solution (50 mM EDTA, in 100 mM HEPES pH 7.5 and 0.2% (w/v) bovine serum albumin) which also contained the TR-FRET detection reagents (0.2 μM streptavidin-XL665 [Cisbio Bioassays, Codolet, France] and 1 nM anti-phosho-Serine antibody [Merck Millipore, cat. #35-001] and 0.4 nM LANCE EU-W1024 labeled anti-mouse IgG antibody [Perkin-Elmer, product no. AD0077, alternatively a Terbium-cryptate-labeled anti-mouse IgG antibody from Cisbio Bioassays can be used]). The stopped reaction mixture was further incubated 1 h at 22° C. in order to allow the formation of complexes between peptides and detection reagents. Subsequently, the amount of product was evaluated by measurement of the resonance energy transfer from the Eu-chelate-antibody complex recognizing the Phosphoserine residue to the streptavidin-XL665 bound to the biotin moiety of the peptide. […] IC50 values were calculated by fitting the normalized inhibition data to a 4-parameter logistic equation (Minimum, Maximum, IC50, Hill; Y=Max+(Min−Max)/(1+(X/IC50) Hill)).

Compared with `COCCOc1cc(F)c(Cn2nc(-c3ncc(C)c(Nc4ccncc4OC)n3)c3ccccc32)c(F)c1` [Example 2-2-47, 2-{1-[2,6-difluoro-4-(2-methoxyethoxy)benzyl]-1H-indazol-3-yl}-N-(3-methoxypyridin-4-yl)-5-methylpyrimidin-4-amine], `Cc1cc(Nc2cc(C(C)C)nc(-c3nn(Cc4c(F)cc(OCCO)cc4F)c4ccccc34)n2)c(C)cn1` [Example 2-6-30, 2-{4-[(3-{4-[(2,5-dimethylpyridin-4-yl)amino]-6-isopropylpyrimidin-2-yl}-1H-indazol-1-yl)methyl]-3,5-difluorophenoxy} ethanol] is 370-fold higher in IC50: 0.0087 µM for the first, 3.2 µM for the second. The first is the more potent here.

same assay, conditions: Biological Assay 1: Bub1 kinase assay median IC50, 10 μM ATP

`CCOc1cc(F)c(Cn2nc(-c3ncc(CCSC)c(Nc4ccncc4)n3)c3ccccc32)c(F)c1` [Example 2-2-1, 2-[1-(4-ethoxy-2,6-difluorobenzyl)-1H-indazol-3-yl]-5-[2-(methylsulfanyl)ethyl]-N-(pyridin-4-yl)pyrimidin-4-amine] and `CCOc1cc(F)c(Cn2nc(-c3ncc(CCCSC)c(Nc4ccncc4)n3)c3ccccc32)c(F)c1` [Example 2-2-2, 2-[1-(4-ethoxy-2,6-difluorobenzyl)-1H-indazol-3-yl]-5-[3-(methylsulfanyl)propyl]-N-(pyridin-4-yl)pyrimidin-4-amine] are within 1.5-fold of each other in IC50: 0.011 µM for the first, 0.012 µM for the second.

`CCOc1cc(F)c(Cn2nc(-c3ncc(C)c(Nc4ccncc4)n3)c3ccccc32)c(F)c1` [Example 2-2-4, 2-[1-(4-ethoxy-2,6-difluorobenzyl)-1H-indazol-3-yl]-5-methyl-N-(pyridin-4-yl)pyrimidin-4-amine] and `CCOc1cc(F)c(Cn2nc(-c3ncc(CCOC)c(Nc4ccncc4)n3)c3ccccc32)c(F)c1` [Example 2-2-9, 2-[1-(4-ethoxy-2,6-difluorobenzyl)-1H-indazol-3-yl]-5-(2-methoxyethyl)-N-(pyridin-4-yl)pyrimidin-4-amine] are within 1.5-fold of each other in IC50: 0.013 µM for the first, 0.012 µM for the second.

`CCOc1cc(F)c(Cn2nc(-c3ncc(CNC=O)c(Nc4ccncc4)n3)c3ccccc32)c(F)c1` [Example 2-2-8, N-({2-[1-(4-ethoxy-2,6-difluorobenzyl)-1H-indazol-3-yl]-4-(pyridin-4-ylamino)pyrimidin-5-yl}methyl)formamide] and `CCOc1cc(F)c(Cn2nc(-c3ncc(CS(C)(=O)=O)c(Nc4ccncc4)n3)c3ccccc32)c(F)c1` [Example 2-3-3, 2-[1-(4-ethoxy-2,6-difluorobenzyl)-1H-indazol-3-yl]-5-[(methylsulfonyl)methyl]-N-(pyridin-4-yl)pyrimidin-4-amine] are within 1.5-fold of each other in IC50: 0.01 µM for the first, 0.0089 µM for the second.

`CCOc1cc(F)c(Cn2nc(-c3ncc(CCCOC)c(Nc4ccncc4C(=O)O)n3)c3ccccc32)c(F)c1` [Example 2-2-10, 4-({2-[1-(4-ethoxy-2,6-difluorobenzyl)-1H-indazol-3-yl]-5-(3-methoxypropyl)pyrimidin-4-yl}amino)nicotinic acid] and `CCOc1cc(F)c(Cn2nc(-c3ncc(CCCOC)c(Nc4ccncc4)n3)c3ccccc32)c(F)c1` [Example 2-2-11, 2-[1-(4-ethoxy-2,6-difluorobenzyl)-1H-indazol-3-yl]-5-(3-methoxypropyl)-N-(pyridin-4-yl)pyrimidin-4-amine] are within 1.5-fold of each other in IC50: 0.02 µM for the first, 0.017 µM for the second.

Compared with `CCOc1cc(F)c(Cn2nc(-c3ncc(CCCN4CCOCC4)c(Nc4ccncc4)n3)c3ccccc32)c(F)c1` [Example 2-2-13, 2-[1-(4-ethoxy-2,6-difluorobenzyl)-1H-indazol-3-yl]-5-[3-(morpholin-4-yl)propyl]-N-(pyridin-4-yl)pyrimidin-4-amine], `CCOc1cc(F)c(Cn2nc(-c3ncc(CCCCN4CC(F)(F)C4)c(Nc4ccncc4)n3)c3ccccc32)c(F)c1` [Example 2-2-20, 5-[4-(3,3-difluoroazetidin-1-yl)butyl]-2-[1-(4-ethoxy-2,6-difluorobenzyl)-1H-indazol-3-yl]-N-(pyridin-4-yl)pyrimidin-4-amine] is 3.9-fold higher in IC50: 0.015 µM for the first, 0.058 µM for the second.

Going from `CCOc1cc(F)c(Cn2nc(-c3ncc(CC4OCCO4)c(Nc4ccncc4)n3)c3ccccc32)c(F)c1` [Example 2-2-15, 5-(1,3-dioxolan-2-ylmethyl)-2-[1-(4-ethoxy-2,6-difluorobenzyl)-1H-indazol-3-yl]-N-(pyridin-4-yl)pyrimidin-4-amine] to `CS(=O)(=O)Cc1cnc(-c2nn(Cc3c(F)cc(OCCO)cc3F)c3ccccc23)nc1N(CCO)c1ccncc1` [Example 2-4-4, 2-[(2-{1-[2,6-difluoro-4-(2-hydroxyethoxy)benzyl]-1H-indazol-3-yl}-5-[(methylsulfonyl)methyl]pyrimidin-4-yl)(pyridin-4-yl)amino]ethanol], the IC50 rises from 0.014 µM to 0.48 µM (34-fold).

Going from `COCCOc1cc(F)c(Cn2nc(-c3ncc(C4CC4)c(Nc4ccncc4OC)n3)c3ccccc32)c(F)c1` [Example 2-2-48, 5-cyclopropyl-2-{1-[2,6-difluoro-4-(2-methoxyethoxy)benzyl]-1H-indazol-3-yl}-N-(3-methoxypyridin-4-yl)pyrimidin-4-amine] to `COc1cnccc1Nc1nc(-c2nn(Cc3c(F)cc(OCCO)cc3F)c3ccccc23)nc2c1CCC(C)(C)C2` [Example 2-6-26, 2-{3,5-difluoro-4-[(3-{4-[(3-methoxypyridin-4-yl)amino]-7,7-dimethyl-5,6,7,8-tetrahydroquin-azolin-2-yl}-1H-indazol-1-yl)methyl]phenoxy}ethanol], the IC50 rises from 0.0037 µM to 0.042 µM (11-fold).

First: Nc1cc(Nc2nc(-c3nn(Cc4c(F)cc(OCCO)cc4F)c4ccccc34)nc3c2CCC3)ccn1 [Example 2-4-7, 2-{4-[(3-{4-[(2-aminopyridin-4-yl)amino]-6,7-dihydro-5H-cyclopenta[d]pyrimidin-2-yl}-1H-indazol-1-yl)methyl]-3,5-difluorophenoxy}ethanol]
Second: Cc1cc(Nc2nc(-c3nn(Cc4c(F)cc(O)cc4F)c4ccccc34)nc3c2CCC3)ccn1 [Example 2-6-8, 3,5-difluoro-4-[(3-{4-[(2-methylpyridin-4-yl)amino]-6,7-dihydro-5H-cyclopenta[d]pyrimidin-2-yl}-1H-indazol-1-yl)methyl]phenol]
The IC50 of the first is 4.7-fold lower: 0.0097 µM for the first, 0.046 µM for the second. The first is the more potent here.

Going from `CCOc1cc(F)c(Cn2nc(-c3nc(Nc4ccnc(NC(C)=O)c4)cc([C@H](C)O)n3)c3ccccc32)c(F)c1` [Example 2-4-9, N-[4-({2-[1-(4-ethoxy-2,6-difluorobenzyl)-1H-indazol-3-yl]-6-[(1S)-1-hydroxyethyl]pyrimidin-4-yl}amino)pyridin-2-yl]acetamide] to `Cc1nccc(Nc2cc(C(C)C)nc(-c3nn(Cc4c(F)cc(OCCO)cc4F)c4ccccc34)n2)n1` [Example 2-6-28, 2-{3,5-difluoro-4-[(3-{4-isopropyl-6-[(2-methylpyrimidin-4-yl)amino]pyrimidin-2-yl}-1H-indazol-1-yl)methyl]phenoxy}ethanol], the IC50 rises from 0.011 µM to 0.51 µM (46-fold).

Compared with `Cc1cnccc1Nc1nc(-c2nn(Cc3c(F)cc(O)cc3F)c3ccccc23)nc2c1CCC2` [Example 2-6-5, 3,5-difluoro-4-[(3-{4-[(3-methylpyridin-4-yl)amino]-6,7-dihydro-5H-cyclopenta[d]pyrimidin-2-yl}-1H-indazol-1-yl)methyl]phenol], `Oc1cc(F)c(Cn2nc(-c3nc4c(c(Nc5ccncn5)n3)CCC4)c3ccccc32)c(F)c1` [Example 2-6-11, 3,5-difluoro-4-({3-[4-(pyrimidin-4-ylamino)-6,7-dihydro-5H-cyclopenta[d]pyrimidin-2-yl]-1H-indazol-1-yl}methyl)phenol] is 1.8-fold higher in IC50: 0.0077 µM for the first, 0.014 µM for the second.

First: CC(=O)Nc1cc(Nc2nc(-c3nn(Cc4c(F)cc(O)cc4F)c4ccccc34)nc3c2CCC3)ccn1 [Example 2-6-7, N-[4-({2-[1-(2,6-difluoro-4-hydroxybenzyl)-1H-indazol-3-yl]-6,7-dihydro-5H-cyclopenta[d]pyrimidin-4-yl}amino)pyridin-2-yl]acetamide]
Second: Cc1nccc(Nc2nc(-c3nn(Cc4c(F)cc(OCCO)cc4F)c4ccccc34)nc(C)c2F)n1 [Example 2-6-32, 2-{3,5-difluoro-4-[(3-{5-fluoro-4-methyl-6-[(2-methylpyrimidin-4-yl)amino]pyrimidin-2-yl}-1H-indazol-1-yl)methyl]phenoxy}ethanol]
The IC50 of the first is 23-fold lower: 0.0093 µM for the first, 0.21 µM for the second.

Compared with `OCCOc1cc(F)c(Cn2nc(-c3nc4c(c(Nc5ccncn5)n3)CN(CC(F)(F)F)C4)c3ccccc32)c(F)c1` [Example 2-6-40, 2-[3,5-difluoro-4-({3-[4-(pyrimidin-4-ylamino)-6-(2,2,2-trifluoroethyl)-6,7-dihydro-5H-pyrrolo[3,4-d]pyrimidin-2-yl]-1H-indazol-1-yl}methyl)phenoxy]ethanol], `COc1cnccc1Nc1nc(-c2nn(Cc3c(F)cc(OCCO)cc3F)c3ccccc23)nc2c1CN(CC(F)(F)F)C2` [Example 2-6-41, 2-{3,5-difluoro-4-[(3-{4-[(3-methoxypyridin-4-yl)amino]-6-(2,2,2-trifluoroethyl)-6,7-dihydro-5H-pyrrolo[3,4-d]pyrimidin-2-yl}-1H-indazol-1-yl)methyl]phenoxy}ethanol] is 1.5-fold higher in IC50: 0.0093 µM for the first, 0.014 µM for the second. The first is the more potent here.
